How the values were obtained:
Type in all cases: biochemical
UTX (KDM6A) = biological target: T1, UTX (KDM6A) (Homo sapiens, UniProt O15550); assay: Histone lysine demethylase AlphaLISA assay, UTX; details: substrate BK27M3
T1 construct: 919-1401; host or cells: E. coli
Summary of the method: (§1)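 Per-enzyme reaction conditions apply; each enzyme sees compound for 10 min ahead of substrate addition. Bead-based AlphaLISA detection at room temperature, protected from light, gives the IC50.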

JMJD1B (KDM3B) = biological target: T2, JMJD1B (KDM3B) (Homo sapiens, UniProt Q7LBC6); assay: Histone lysine demethylase AlphaLISA assay, JMJD1B; details: substrate BK9M2
T2 construct: 842-1761; host or cells: Bac (baculovirus)
T2 sequence (Q7LBC6 842-1761): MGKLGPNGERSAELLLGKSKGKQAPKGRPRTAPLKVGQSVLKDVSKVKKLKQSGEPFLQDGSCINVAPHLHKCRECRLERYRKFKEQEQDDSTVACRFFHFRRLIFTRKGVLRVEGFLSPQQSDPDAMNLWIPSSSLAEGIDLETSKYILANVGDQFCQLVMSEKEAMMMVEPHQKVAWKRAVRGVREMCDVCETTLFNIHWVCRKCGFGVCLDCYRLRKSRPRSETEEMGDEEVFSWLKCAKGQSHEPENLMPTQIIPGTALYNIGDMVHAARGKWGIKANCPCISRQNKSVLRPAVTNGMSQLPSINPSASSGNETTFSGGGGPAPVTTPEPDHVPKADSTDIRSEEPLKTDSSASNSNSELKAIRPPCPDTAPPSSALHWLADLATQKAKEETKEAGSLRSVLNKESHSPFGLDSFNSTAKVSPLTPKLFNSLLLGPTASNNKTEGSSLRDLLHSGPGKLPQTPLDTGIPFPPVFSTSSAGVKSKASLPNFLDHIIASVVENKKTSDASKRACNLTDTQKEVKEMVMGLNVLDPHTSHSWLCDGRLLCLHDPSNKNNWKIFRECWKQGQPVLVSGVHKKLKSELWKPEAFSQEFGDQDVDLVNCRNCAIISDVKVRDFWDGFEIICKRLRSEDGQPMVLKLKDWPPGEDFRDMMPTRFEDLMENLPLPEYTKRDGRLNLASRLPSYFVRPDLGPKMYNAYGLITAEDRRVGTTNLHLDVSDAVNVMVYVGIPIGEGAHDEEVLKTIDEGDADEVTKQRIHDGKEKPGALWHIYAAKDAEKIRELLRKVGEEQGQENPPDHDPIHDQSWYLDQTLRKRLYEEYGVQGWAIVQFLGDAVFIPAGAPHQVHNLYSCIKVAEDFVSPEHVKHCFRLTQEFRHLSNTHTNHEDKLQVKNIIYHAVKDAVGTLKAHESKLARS
Protocol: (§2) Example 2: Histone Lysine Demethylase AlphaLISA Assays for IC50 Value Determination
(§3) Assays are performed analogously to the protocol described by Perkin Elmer (Roy et al. Perkin Elmer Technical Note: AlphaLISA #12, April 2011).
(§4) Enzymes are dissolved in enzyme buffer and incubated for 10 min before 5 μL is added to 5 μL 3% DMSO solutions of compounds in enzyme buffer. Incubated for another 10 minutes, before 5 μL substrate solution is added and the reaction mixture is incubated at room temperature for the given period. 10 μL acceptor beads, suspended at given dilutions in Epigenetic Buffer (Perkin Elmer AL008) from stock, are added and the suspension is incubated 60 minutes in the dark at room temperature, before 10 μL suspension (at the given dilutions in Epigenetic Buffer) of streptavidin donor beads (Perkin Elmer 6760002) in Epigenetic Buffer is added. After incubation at room temperature in the dark the plates are read. Reaction conditions are seen in Table 2b.

FBXL10 (KDM2B) = biological target: T3, FBXL10 (KDM2B) (Homo sapiens, UniProt Q8NHM5); assay: Histone lysine demethylase AlphaLISA assay, FBXL10; details: substrate BH3K36M2
T3 construct: 1-650; purchased BPS, Bioscience, US; host or cells: Bac (baculovirus)
T3 sequence (Q8NHM5 1-650): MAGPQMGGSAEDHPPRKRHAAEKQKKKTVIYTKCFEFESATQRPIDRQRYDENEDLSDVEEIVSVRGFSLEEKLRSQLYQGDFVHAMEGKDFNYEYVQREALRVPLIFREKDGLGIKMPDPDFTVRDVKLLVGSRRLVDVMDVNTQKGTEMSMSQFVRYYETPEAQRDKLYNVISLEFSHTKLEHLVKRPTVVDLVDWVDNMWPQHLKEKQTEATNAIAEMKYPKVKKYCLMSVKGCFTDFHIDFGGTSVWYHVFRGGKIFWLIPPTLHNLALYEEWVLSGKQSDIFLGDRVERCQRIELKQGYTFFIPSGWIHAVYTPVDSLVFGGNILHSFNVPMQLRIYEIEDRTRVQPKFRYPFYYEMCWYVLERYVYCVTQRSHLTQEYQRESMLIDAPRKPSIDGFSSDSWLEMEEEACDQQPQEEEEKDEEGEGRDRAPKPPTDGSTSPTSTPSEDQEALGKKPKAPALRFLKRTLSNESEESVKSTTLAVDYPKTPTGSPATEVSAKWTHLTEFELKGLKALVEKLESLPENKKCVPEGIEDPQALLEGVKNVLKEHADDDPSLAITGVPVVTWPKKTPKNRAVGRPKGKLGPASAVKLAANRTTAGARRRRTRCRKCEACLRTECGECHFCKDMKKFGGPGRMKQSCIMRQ
Summary of the method: as §1

JMJD2A (KDM4A) = biological target: T4, JMJD2A (KDM4A) (Homo sapiens, UniProt O75164); assay: Histone lysine demethylase AlphaLISA assay, JMJD2A; details: substrate BK9M3
T4 construct: 1-350; purchased BPS, Bioscience, US; host or cells: E. coli
T4 sequence (O75164 1-350): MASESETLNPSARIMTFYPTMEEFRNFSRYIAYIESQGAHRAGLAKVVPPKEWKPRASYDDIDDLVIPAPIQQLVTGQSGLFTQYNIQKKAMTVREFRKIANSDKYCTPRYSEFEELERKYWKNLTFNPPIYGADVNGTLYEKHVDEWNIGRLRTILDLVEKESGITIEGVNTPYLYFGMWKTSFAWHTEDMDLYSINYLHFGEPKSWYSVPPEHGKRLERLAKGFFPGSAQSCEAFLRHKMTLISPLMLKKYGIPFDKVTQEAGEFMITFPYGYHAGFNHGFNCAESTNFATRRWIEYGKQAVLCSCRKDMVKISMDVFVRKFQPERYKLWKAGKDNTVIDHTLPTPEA
Protocol: as §2, §3, §4

T1 sequence (O15550 919-1401): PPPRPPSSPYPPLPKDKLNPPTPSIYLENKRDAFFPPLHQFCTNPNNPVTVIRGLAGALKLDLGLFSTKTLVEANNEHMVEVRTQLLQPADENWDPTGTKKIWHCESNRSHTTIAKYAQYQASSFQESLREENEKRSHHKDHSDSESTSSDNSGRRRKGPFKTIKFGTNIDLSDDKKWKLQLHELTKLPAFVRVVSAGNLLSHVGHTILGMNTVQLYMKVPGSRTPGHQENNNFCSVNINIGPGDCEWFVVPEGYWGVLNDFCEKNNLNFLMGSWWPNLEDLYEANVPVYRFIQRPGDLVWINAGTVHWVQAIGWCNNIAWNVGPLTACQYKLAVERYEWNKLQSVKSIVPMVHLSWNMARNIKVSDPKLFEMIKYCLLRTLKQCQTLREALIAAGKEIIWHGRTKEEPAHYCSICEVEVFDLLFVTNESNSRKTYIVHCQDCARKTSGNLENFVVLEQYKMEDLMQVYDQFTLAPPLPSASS

Row | Compound | IC50 (UTX (KDM6A)) | IC50 (JMJD1B (KDM3B)) | IC50 (FBXL10 (KDM2B)) | IC50 (JMJD2A (KDM4A))
1 | 2-({[(1R)-2-hydroxy-1-{methyl[3-(1-methyl-1H-imidazol-2-yl)propyl]carbamoyl}ethyl]amino}methyl)pyridine-4-carboxylic acid [#37] | ≥ 1000 nM | ≥ 1000 nM | ≥ 1000 nM | < 100 nM
2 | O=C(O)c1ccnc(CNCC(=O)N2CCCC2)c1 [#13, 2-({[2-oxo-2-(pyrrolidin-1-yl)ethyl]amino}methyl)pyridine-4-carboxylic acid] | ≥ 1000 nM | ≥ 1000 nM | < 100 nM | < 100 nM
3 | CCCCN(C)C(=O)CNCc1cc(C(=O)O)ccn1 [#14, 2-[({[butyl(methyl)carbamoyl]methyl}amino)methyl]pyridine-4-carboxylic acid] | ≥ 1000 nM | ≥ 1000 nM | < 100 nM | –
4 | COc1ccccc1CN1CCC(NC(=O)CNCc2cc(C(=O)O)ccn2)CC1 [#29, 2-({[({1-[(2-methoxyphenyl)methyl]piperidin-4-yl}carbamoyl)methyl]amino}methyl)pyridine-4-carboxylic acid] | – | 100 to 1000 nM | < 100 nM | < 100 nM
5 | CCCCN1CCCC1CCNCc1cc(C(=O)O)ccn1 (stereo not shown) [#34, 2-({[2-(1-butylpyrrolidin-2-yl)ethyl]amino}methyl)pyridine-4-carboxylic acid] | ≥ 1000 nM | ≥ 1000 nM | – | < 100 nM
6 | CC(C)=CCCC(C)CCN1CCC(NC(=O)CNCc2cc(C(=O)O)ccn2)C1 (stereo not shown) [#35, 2-{[({[1-(3,7-dimethyloct-6-en-1-yl)pyrrolidin-3-yl]carbamoyl}methyl)amino]methyl}pyridine-4-carboxylic acid] | ≥ 1000 nM | ≥ 1000 nM | 100 to 1000 nM | < 100 nM
7 | CCN(CCN(C)C)C(=O)CNCc1cc(C(=O)O)ccn1 [#49, 2-{[({[2-(dimethylamino)ethyl](ethyl)carbamoyl}methyl)amino]methyl}pyridine-4-carboxylic acid] | ≥ 1000 nM | ≥ 1000 nM | 100 to 1000 nM | < 100 nM
